Assay results from patent publication US20260048101A1, “GLP-1R ANTAGONISM TO IMPROVE NUTRITION FOLLOWING GASTROINTESTINAL SURGERY” (Amylyx Pharmaceuticals, Inc., priority 2023, published 2026).

Test system: Patient 2 (total gastrectomy, severe hypoglycemia events)
Assay: Patient 2 case history: prior pharmacotherapy
Assay type: in vivo, human
Details: Patient 2, before trial participation
From the text: The patient had been placed on a liquid diet for 6 weeks after surgery and had initially lost 20 lbs. but otherwise fared well in the immediate postoperative period. […] The meals caused pain, gastrointestinal symptoms, and frequent diarrhea (per patient report). The patient also complained of weakness, lethargy and general feeling of despondency. […] They began to experience severe hypoglycemia events, including multiple episodes of loss of consciousness with requirement for emergency medical assistance. […] The patient was referred for trial participation.

gastrointestinal symptoms: worsening of gastrointestinal symptoms
Compound: C[C@H]1O[C@H](O[C@H]2[C@H](O)[C@@H](O)[C@@H](O[C@H]3[C@H](O)[C@@H](O)C(O)O[C@@H]3CO)O[C@@H]2CO)[C@H](O)[C@@H](O)[C@@H]1N[C@H]1C=C(CO)[C@@H](O)[C@H](O)[C@H]1O (stereo partly shown) [acarbose]
